# Measurements: patent US20070082910A1, “Specific nad(p)h oxidase inhibitor” (Mitsubishi Pharma Corporation, priority 2003, published 2007)
# Assays:
# [1] = tested on: NAD(P)H oxidase in diabetic rat aorta; experiment: Aorta NAD(P)H oxidase inhibitory effect, test compound added to aorta ring specimen in vitro; type: biochemical
# Experimental: This ring specimen was preincubated in Krebs-Hepes buffer containing the test compound (compound A, compound B or DPI (SIGMA)) at 37° C. for 10 min, and then transferred to Krebs-Hepes buffer containing 0.25 mM lucigenin. […] The total value of chemiluminescence was calculated from AUC of the curve drawn by plotting the chemiluminescence value (vertical axis) relative to the measurement time (horizontal axis). The obtained chemiluminescence value was divided by the wet weight of the vascular ring specimen and standardized to the superoxide anion production per aorta unit weight.
# leukocyte NADPH oxidase = experiment: Effect on leukocyte NADPH oxidase (PMA-stimulated lucigenin chemiluminescence); type: cell-based, rat; details: for inhibitory rate (%), leukocyte NADPH oxidase: PMA-stimulated rat leukocytes, mean ± standard error; for inhibitory effect on leukocyte NADPH oxidase: result in words
# Experimental: Blood was drawn from the abdominal aorta of normal male Wister rats (Japan SLC) and immediately mixed with an ice-cold lysis buffer at 42 mL of the buffer per 3 mL of the blood.
# After 5 min, the mixture was centrifuged at 4° C., 1100 rpm for 5 min. The precipitate was suspended in an ice-cold Lysis buffer, and centrifuged again at 4° C., 1100 rpm for 5 min. This operation was repeated 3 times to obtain leukocytes. The obtained leukocytes were suspended in Krebs-Hepes buffer and the number of the cells was adjusted to 1×10^6/ml. 0.25 mM Lucigenin and the test agent were added, Phorbol 12-myristate 13-acetate (hereinafter to be indicated as “PMA”, SIGMA) was further added, and the chemiluminescence value was measured at 37° C. for 10 min.
# The inhibitory rate (%) was calculated by the following formula: inhibitory rate (%)=100−[(A−C)/(B−C))×[…] wherein A is the total chemiluminescence value of the leukocyte suspension with the addition of the test compound, B is the total chemiluminescence value of the leukocyte suspension (control) without addition of the test compound, and C is the total chemiluminescence value of the leukocyte suspension without stimulation with PMA.
# NAD(P)H oxidase = experiment: IL-8 production inhibitory effect in HUVEC cultured with 44 mM glucose; type: cell-based, human; details: for IC50: from dose-effect line by least squares; for inhibitory rate (%) of IL-8 production: 8 days
# Experimental: NAD(P)HOxidase Inhibitory Effect (Method)
# 44 mM glucose was added to Human Umbilical Vein Endothelial Cells (Bio Whittaker, hereinafter to be indicated as “HUVEC”), and cells were cultured for 8 days. Then, a lysis buffer containing a surfactant, Triton-X Nonidet P-40, was added, and interleukin-8 (hereinafter to be indicated as “IL-8”) in the cell lysate, which had been produced by NAD(P)H oxidase was measured by an enzyme-linked […]. The test compound was added one day before glucose addition.
# The inhibitory rate was calculated from the following formula: inhibitory rate (%)=100−[(A−C)/(B−C)]×100
# wherein A is IL-8 production of a cell cultured in the presence of 44 mM glucose with addition of the test compound, B is IL-8 production of a cell cultured in the presence of 44 mM glucose without addition of the test compound, and C is IL-8 production of a cell cultured in the absence of 44 mM glucose and the test compound. The IC50 value was calculated from the dose-effect line drawn by the least squares method based on the obtained inhibitory rate.
# [2] = tested on: NAD(P)H oxidase in diabetic rat aorta; experiment: NAD(P)H oxidase activity (superoxide anion production, lucigenin chemiluminescence) in aorta of streptozotocin diabetic rats after oral administration; type: in vivo; details: once a day for 3 days
# Experimental: Streptozotocin (40 mg/kg) dissolved in 0.05 M citric acid buffer (pH 4.5) was administered into the tail vein of male Wistar rats (Japan SLC) to prepare diabetic rats. At 1 week to 8 weeks from the intravenous injection of streptozotocin, blood was drawn from the tail vein using a capillary treated with heparin, which was immediately cooled with ice and centrifuged at 3000 rpm, 15 min, 4° C. to give serum. The blood glucose level was measured by enzyme assay using a glucose measurement kit “GLU neo sinotest” (sinotest) and a microplate reader (SPECTRA MAX250, Molecular Devices).
# The NAD(P)H oxidase activity was measured by the following method, which was modified by the method of the David. G. Harrison et al. (J. Clin. Invest. 91, 2546-2551, 1993), at 4 days from the start of the test, with superoxide anion production in aorta as an index.
# To be specific, normal rat or diabetic rat free of the above-mentioned treatment was exsanguinated from the abdominal aorta, their thoracic aorta was removed. The removed thoracic aorta was immersed in Krebs-Hepes buffer and marginal tissues were removed to prepare an about 5 mm ring specimen. This ring specimen was preincubate in Krebs-Hepes buffer at 37° C. for 10 min and transferred to Krebs-Hepes buffer containing 0.25 mM lucigenin (SIGMA). 500 μM NADH (SIGMA) was added and chemiluminescence value (chemiluminescence: unit RLU: relative light units) was measured using a luminometer (MULTI-BIOLUMAT LB9505C, Warrack.Berthold) at 37° C. for 10 min. The total value of chemiluminescence was calculated from the area under the curve (hereinafter to be referred to as “AUC”) drawn by plotting the chemiluminescence value (vertical axis) relative to the measurement time (horizontal axis). The measured total value of chemiluminescence was divided by the wet weight of the vascular ring specimen and standardized to the superoxide anion production per aorta unit weight.
# The inhibitory rate (%) was calculated from the following formula: inhibitory rate (%)=100−[(A−C)/(B−C)]×100
# wherein A was the standardized value of chemiluminescence of diabetic rat administered with the test compound, B was the standardized value of chemiluminescence of diabetic rat without administration of the test compound, and C was the standardized value of chemiluminescence of normal rat without administration of the test compound.
# [3] = tested on: NAD(P)H oxidase in normal rat aorta; experiment: Effect on normal rat NAD(P)H oxidase (superoxide anion production in aorta after administration); type: in vivo; details: 10 mg/kg for 3 days
# Experimental: The test compound (10 mg/kg) was administered to normal male Wistar rats (Japan SLC) for 3 days, and the production amount of superoxide anion in the aorta was measured in the same manner as in Experimental Example 2.
# The inhibitory rate (%) was calculated by the following formula: inhibitory rate (%)=100−(A/B)×100 wherein A is the standardized chemiluminescence value of the rats administered with the test compound, and B is the standardized chemiluminescence value of the rats without administration of the test compound (control group).
# [4] = tested on: cerebral infarction model; experiment: Cerebral infarction model (ischemic brain disorder model), ligation of both common carotid arteries; type: in vivo, mouse
# Experimental: Male ICR mice (Japan SLC) were anesthetized with ether and fixed in the dorsal position. The both common carotid arteries were ligated using a thread. The wound was closed, and the mice were released in a cage. The death of the mouse was confirmed every 30 min up to 240 min, and cumulative mortality rate of each group was determined. Compound B was orally administered 1 hr before common carotid artery ligation.
# [5] = test compound concentration 0.01 μM
# [6] = test compound concentration 0.1 μM
# [7] = test compound concentration 1 μM
structure (smiles),measurement,setting,value
"c1ccc2c(c1)[I+]c1ccccc1-2 [DPI, diphenyleneiodonium, reference compound]",inhibitory rate (%),[1]; 200 μM added to aorta ring in vitro,45.1%
same,chemiluminescence (×10^5 RLU/wet weight of aorta),"[1]; 200 μM added to aorta ring in vitro, mean ± standard error",5.2 ± 1.1 ×10^5 RLU/wet weight of aorta
same,NAD(P)H oxidase inhibitory effect on aorta ring in vitro,[1]; result in words,showed an NAD(P)H oxidase inhibitory effect
same,"inhibitory rate (%), leukocyte NADPH oxidase",leukocyte NADPH oxidase; 200 μg/mL,106.7 ± 0.2%
same,inhibitory effect on leukocyte NADPH oxidase,leukocyte NADPH oxidase,showed an inhibitory effect on leukocyte NADPH oxidase
C[C@@H](Nc1nnc(-c2ccccc2)c2ccccc12)c1ccccc1 [compound B],IC50,NAD(P)H oxidase,< 10 nM
same,inhibitory rate (%) of IL-8 production,NAD(P)H oxidase; [5],63.8%
same,inhibitory rate (%) of IL-8 production,NAD(P)H oxidase; [6],77.8%
same,inhibitory rate (%) of IL-8 production,NAD(P)H oxidase; [7],72.0%
same,"inhibitory rate (%), NAD(P)H oxidase in diabetic rat aorta",[2]; 10 mg/kg oral,88.5%
same,"inhibitory rate (%), NAD(P)H oxidase in normal rat aorta",[3],−1.3%
same,effect on superoxide anion production in normal rat,[3]; result in words,did not affect the superoxide anion production
same,chemiluminescence (×10^5 RLU/wet weight of aorta),"[3]; normal rat aorta, mean ± standard error",4.01 ± 6.0 ×10^5 RLU/wet weight of aorta
same,"inhibitory rate (%), leukocyte NADPH oxidase",leukocyte NADPH oxidase; 1 μM,11.7 ± 24.2%
same,inhibitory effect on leukocyte NADPH oxidase,leukocyte NADPH oxidase,did not show an inhibitory effect on leukocyte NADPH oxidase
same,number of deaths in interval,"[4]; 1 mg/kg oral 1 hr before ligation, 0-30 min",15
same,number of deaths in interval,"[4]; 1 mg/kg oral, 31-60 min",2
same,number of deaths in interval,"[4]; 1 mg/kg oral, 61-90 min",2
same,number of deaths in interval,"[4]; 1 mg/kg oral, 91-120 min",0
same,number of deaths in interval,"[4]; 1 mg/kg oral, 121-150 min",0
same,number of deaths in interval,"[4]; 1 mg/kg oral, 151-180 min",0
same,number of deaths in interval,"[4]; 1 mg/kg oral, 181-210 min",0
same,number of deaths in interval,"[4]; 1 mg/kg oral, 211-240 min",0
same,cumulative mortality rate,"[4]; 1 mg/kg oral, up to 30 min",78.9%
same,cumulative mortality rate,"[4]; 1 mg/kg oral, up to 60 min",84.2%
same,cumulative mortality rate,"[4]; 1 mg/kg oral, up to 90 min",94.7%
same,number of deaths in interval,"[4]; 3 mg/kg oral 1 hr before ligation, 0-30 min",11
same,number of deaths in interval,"[4]; 3 mg/kg oral, 31-60 min",5
same,number of deaths in interval,"[4]; 3 mg/kg oral, 61-90 min",0
same,number of deaths in interval,"[4]; 3 mg/kg oral, 91-120 min",0
same,number of deaths in interval,"[4]; 3 mg/kg oral, 121-150 min",1
same,number of deaths in interval,"[4]; 3 mg/kg oral, 151-180 min",0
same,number of deaths in interval,"[4]; 3 mg/kg oral, 181-210 min",0
same,number of deaths in interval,"[4]; 3 mg/kg oral, 211-240 min",0
same,cumulative mortality rate,"[4]; 3 mg/kg oral, up to 30 min",57.9%
same,cumulative mortality rate,"[4]; 3 mg/kg oral, up to 60 min",84.2%
same,cumulative mortality rate,"[4]; 3 mg/kg oral, up to 150 min",89.5%
same,number of deaths in interval,"[4]; 10 mg/kg oral 1 hr before ligation, 0-30 min",8
same,number of deaths in interval,"[4]; 10 mg/kg oral, 31-60 min",6
same,number of deaths in interval,"[4]; 10 mg/kg oral, 61-90 min",2
same,number of deaths in interval,"[4]; 10 mg/kg oral, 91-120 min",1
same,number of deaths in interval,"[4]; 10 mg/kg oral, 121-150 min",0
same,number of deaths in interval,"[4]; 10 mg/kg oral, 151-180 min",0
same,number of deaths in interval,"[4]; 10 mg/kg oral, 181-210 min",0
same,number of deaths in interval,"[4]; 10 mg/kg oral, 211-240 min",0
same,cumulative mortality rate,"[4]; 10 mg/kg oral, up to 30 min",40.0%
same,cumulative mortality rate,"[4]; 10 mg/kg oral, up to 60 min",70.0%
same,cumulative mortality rate,"[4]; 10 mg/kg oral, up to 90 min",80.0%
same,cumulative mortality rate,"[4]; 10 mg/kg oral, up to 120 min",85.0%
same,mortality rate improving effect in brain ischemia model,[4]; result in words,a mortality rate improving effect was seen
O=C(O)c1nn(-c2ccccc2)c2ccccc2c1=O [compound C],IC50,NAD(P)H oxidase,15.4 nM
same,inhibitory rate (%) of IL-8 production,NAD(P)H oxidase; [5],−2.5%
same,inhibitory rate (%) of IL-8 production,NAD(P)H oxidase; [6],53.7%
same,inhibitory rate (%) of IL-8 production,NAD(P)H oxidase; [7],97.7%
same,"inhibitory rate (%), NAD(P)H oxidase in diabetic rat aorta",[2]; 0.01 mg/kg oral,45%
same,"inhibitory rate (%), NAD(P)H oxidase in diabetic rat aorta",[2]; 0.1 mg/kg oral,90%
NC(=O)c1nn(-c2ccccc2)c2ccccc2c1=O [compound D],IC50,NAD(P)H oxidase,11.1 nM
same,inhibitory rate (%) of IL-8 production,NAD(P)H oxidase; [5],45.4%
same,inhibitory rate (%) of IL-8 production,NAD(P)H oxidase; [6],98.3%
same,inhibitory rate (%) of IL-8 production,NAD(P)H oxidase; [7],100%
same,"inhibitory rate (%), NAD(P)H oxidase in diabetic rat aorta",[2]; 0.01 mg/kg oral,44%
same,"inhibitory rate (%), NAD(P)H oxidase in diabetic rat aorta",[2]; 0.1 mg/kg oral,72%
CCOC(=O)c1nn(-c2ccccc2)c2ccccc2c1=O [compound E],IC50,NAD(P)H oxidase,< 10 nM
same,inhibitory rate (%) of IL-8 production,NAD(P)H oxidase; [5],96.3%
same,inhibitory rate (%) of IL-8 production,NAD(P)H oxidase; [7],91.0%
N#Cc1nn(-c2ccccc2)c2ccccc2c1=O [compound F],IC50,NAD(P)H oxidase,943 nM
same,inhibitory rate (%) of IL-8 production,NAD(P)H oxidase; [5],0%
same,inhibitory rate (%) of IL-8 production,NAD(P)H oxidase; [6],0%
same,inhibitory rate (%) of IL-8 production,NAD(P)H oxidase; [7],54.5%
N/C(=N\O)c1nn(-c2ccccc2)c2ccccc2c1=O [compound G],IC50,NAD(P)H oxidase,219 nM
same,inhibitory rate (%) of IL-8 production,NAD(P)H oxidase; [5],39.7%
same,inhibitory rate (%) of IL-8 production,NAD(P)H oxidase; [6],43.9%
same,inhibitory rate (%) of IL-8 production,NAD(P)H oxidase; [7],57.4%
Cc1cc(C)n(-c2nnc(-c3ccccc3)c3ccccc23)n1 [compound H],IC50,NAD(P)H oxidase,69 nM
same,inhibitory rate (%) of IL-8 production,NAD(P)H oxidase; [5],27.6%
same,inhibitory rate (%) of IL-8 production,NAD(P)H oxidase; [6],49.9%
same,inhibitory rate (%) of IL-8 production,NAD(P)H oxidase; [7],83.0%
